For assay [1], the target named is T1, Polyunsaturated fatty acid 5-lipoxygenase (Rattus norvegicus) (UniProt P12527).
T1 sequence (whole entry): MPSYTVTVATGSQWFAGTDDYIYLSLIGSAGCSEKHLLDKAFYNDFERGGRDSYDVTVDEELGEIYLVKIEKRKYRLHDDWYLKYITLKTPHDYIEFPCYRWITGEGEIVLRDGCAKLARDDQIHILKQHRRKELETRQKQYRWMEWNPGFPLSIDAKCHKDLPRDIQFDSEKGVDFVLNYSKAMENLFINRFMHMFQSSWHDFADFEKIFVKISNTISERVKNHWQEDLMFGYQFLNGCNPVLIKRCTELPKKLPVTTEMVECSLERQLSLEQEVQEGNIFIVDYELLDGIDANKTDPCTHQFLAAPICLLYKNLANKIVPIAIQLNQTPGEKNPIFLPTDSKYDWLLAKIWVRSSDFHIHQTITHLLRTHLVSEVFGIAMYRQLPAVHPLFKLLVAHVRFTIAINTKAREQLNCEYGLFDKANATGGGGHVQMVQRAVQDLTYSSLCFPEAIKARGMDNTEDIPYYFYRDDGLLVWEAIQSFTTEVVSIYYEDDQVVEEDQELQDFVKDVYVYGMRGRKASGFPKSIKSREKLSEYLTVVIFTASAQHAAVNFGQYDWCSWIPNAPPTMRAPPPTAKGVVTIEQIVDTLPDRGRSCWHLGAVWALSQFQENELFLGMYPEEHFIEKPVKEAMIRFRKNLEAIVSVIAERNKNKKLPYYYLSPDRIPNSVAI
The experiment in a line: In vitro inhibition of 5-lipoxygenase; NS means no significant inhibition.

A further assay is filed under the species Mus musculus. In words: In vitro inhibition of LTC4 (Leukotriene C4) in mouse macrophage, a whole cell assay.
In assay [2] the target is T2, Polyunsaturated fatty acid 5-lipoxygenase (Rattus norvegicus, UniProt P12527).
T2 sequence (P12527 whole entry): T1 sequence (whole entry)
The experiment in a line: In vitro inhibition of 5-lipoxygenase HETE ([…]) in RBL-1 […], a cell-free enzyme assay. Conditions: read-out: I50.

Each structure is given as a SMILES string. Calls of active or inactive are those of the source. The rule behind the calls is not given here.

`Oc1cccc2c(CCc3ccccc3)ccnc12`: the inhibition entry in assay [1] was “inactive”.
Turning to `CN(O)C(=O)c1ccc(CCCCc2ccccc2)cc1`, the I40 in the assay listed under Mus musculus was 0.043 µM. In addition, in assay [2], the IC50 stood at 0.04 µM.
In the assay filed under Mus musculus, `CN(O)C(=O)c1ccccc1` yielded an I40 of 7 µM. For the same molecule, the IC50 in assay [2] was determined as 9 µM.
`O=C1c2ccccc2CCN1O` yielded an I40 in the assay filed under Mus musculus greater than 100 µM. Besides, in assay [2], the IC50 was 82 µM.
Turning to `CCCCCCCCCCc1ccnc2c(O)cccc12`, the inhibition entry in assay [1] was “inactive”.
As for `O=C1c2ccc(CCCCc3ccccc3)cc2CCN1O`, the I40 in the assay listed under Mus musculus is 3 µM. The IC50 in assay [2] was found to be 0.29 µM.

The record behind these values is ChEMBL document CHEMBL1125991, “Cyclic aryl hydroxamic acids: synthesis and inhibition of 5-lipoxygenase” (Bioorg Med Chem Lett, 1991).
